Results on 10 compounds are retold here after patent US11478451B1, “Macrocyclic chlorine substituted indole derivatives” (Bayer Aktiengesellschaft, priority 2017, dated 2022).

Counter-ions that a name gives are not always drawn. Like-named read-outs stand apart in the source and are kept apart here.

Series [1] concerns HMC-1-8 cells. Kind of series: Antiproliferation assay (CellTiter-Glo, 72 h), HMC-1-8. It counts as cell-based. The note with it: IC50, median, HMC-1-8, 72 h, read-out: Antiproli HMC-1-8 [M] median. The procedure, abridged:
(§1)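 Treated cells sat 72 h in a humidified 37 °C incubator, outer wells unused, before CellTiter-Glo reagent and a 10 min wait preceded luminescence reading; identical measurement of a parallel day 0 plate defined time zero.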

Series [2] relates to SUDHL5 cells. Kind of series: Induction of cytotoxicity (CellTiter-Glo, 5 h), SUDHL5. The conditions noted are these: SUDHL5, 5 h.
For series [3], the system named is SUDHL10 cells. Kind of series: Induction of caspase-3/7 activity (Caspase-Glo 3/7), SUDHL10. Format: cell-based. The conditions noted are these: EC50, median, SUDHL10, 3 h treatment. The method, boiled down:
(§2)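 Read-out: Caspase-Glo 3/7 signal, background-corrected against medium-only wells, taken after cells had been incubated with compounds for 3 h at 37 °C.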

The subject of series [4] is SUDHL5 cells. Kind of series: Induction of caspase-3/7 activity (Caspase-Glo 3/7), SUDHL5. It counts as cell-based. The conditions noted are these: EC50, median, SUDHL5, 3 h treatment. The method, boiled down: as §2
For series [5], the system named is AMO-1 cells. Kind of series: Antiproliferation assay (CellTiter-Glo, 72 h), AMO-1. Format: cell-based. The note with it: IC50, median, AMO-1, 72 h, read-out: Antiproli AMO-1 [M] median. The method, boiled down: as §1
For series [6], the system named is SUDHL5 cells. Kind of series: Antiproliferation assay (CellTiter-Glo, 72 h), SUDHL5. The note with it: IC50, median, SUDHL5, 72 h, read-out: Antiproli SUDHL5 [M] (median). It counts as cell-based. The procedure, abridged: as §1
Series [7] deals with SUDHL10 cells. Kind of series: Induction of cytotoxicity (CellTiter-Glo, 5 h), SUDHL10. The note with it: SUDHL10, 5 h.
[8] abbreviates: read-out: Cytotox SUDHL5 [M] (median), IC50, median.
[9] abbreviates: read-out: Cytotox SUDHL10 [M] (median), IC50, median.
Where [10] appears, read: Homo sapiens, SU-DHL-5, 5 h, read-out: Cytotox SUDHL5 [M] (median), IC50, median.
Where [11] appears, read: Homo sapiens, SU-DHL10, 5 h, read-out: Cytotox SUDHL10 [M] (median), IC50, median.

On to `CCc1c2c(nn1C)COCC(O)CCn1c(C(=O)O)c(CCCOc3cccc4cc(F)ccc34)c3ccc(Cl)c-2c31` (stereo not shown) [Example 99, 4-chloro-3-ethyl-7-{3-[(6-fluoronaphthalen-1-yl)oxy]propyl}-12-hydroxy-2-methyl-2,10,11,12,13,15-hexahydropyrazolo[4′,3′:9,10][1,6]oxazacycloundecino[8,7,6-hi]indole-8-carboxylic acid-N-ethylethanamine salt], for which the IC50 is 5.9e-06 M in series [1] (72 h); 2.7e-07 M in series [2] (setting [8]); 5.2e-07 M in series [5] (Homo sapiens, AMO1, 72 h); 2.6e-07 M in series [6] (Homo sapiens, SU-DHL-5, 72 h); 2.3e-07 M in series [7] (setting [9]). In addition, the EC50 in series [3] was 180 nM; in series [4], 190 nM.

As for `Cc1c2c(nn1C)COCC1CC1Cn1c(C(=O)O)c(CCCOc3cccc4ccccc34)c3ccc(Cl)c-2c31` (single isomer, unassigned) [Example 83, 3-chloro-4,5-dimethyl-14-{3-[(naphthalen-1-yl)oxy]propyl}-5,7,9a,10,10a,11-hexahydro-9H-cyclopropa[3,4]pyrazolo[4′,3′:9,10][1,6]oxazacycloundecino[8,7,6-hi]indole-13-carboxylic acid], the IC50 in series [1] (72 h) was 7.4e-06 M; in series [2] (read-out: Cytotox SUDHL5 [M] (median), IC50, median, listed as 083) it was 5.8e-07 M; in series [5] (listed as 083) it was 3.8e-07 M; in series [6] (listed as 083), 5.2e-07 M; in series [7] (read-out: Cytotox SUDHL10 [M] (median), IC50, median, listed as 083), 5.9e-07 M. The EC50 in series [3] (listed as 083) is 410 nM; in series [4] (listed as 083), 220 nM.

On to `CCc1c2c(nn1C)CCCN(CCCCOC(C)=O)CCn1c(C(=O)O)c(CCCOc3cccc4cc(F)ccc34)c3ccc(Cl)c-2c31` (racemic) [Example 121, (rac)-12-(4-acetoxybutyl)-4-chloro-3-ethyl-7-{3-[(6-fluoro-1-naphthyl)oxy]propyl}-2-methyl-10,11,12,13,14,15-hexahydro-2H-pyrazolo[3′,4′:8,9][1,4]diazacycloundecino[10,11,1-hi]indole-8-carboxylic acid], for which the IC50 in series [1] (72 h) amounted to 9.9e-06 M; in series [2] (setting [10]), 1.3e-06 M; in series [5] (Homo sapiens, AMO1, 72 h) it was 1.3e-06 M; in series [6] (Homo sapiens, SU-DHL-5, 72 h), 9e-07 M; in series [7] (setting [11]), 1.9e-06 M. Also, the EC50 in series [3] (Homo sapiens, SU-DHL10, 3 h) was 1700 nM; in series [4] (Homo sapiens, SU-DHL-5, 3 h) it was 1200 nM.

In the case of `CCc1c2c(nn1C)CCCN(CC(F)F)CCn1c(C(=O)O)c(CCCOc3cccc4cc(F)ccc34)c3ccc(Cl)c-2c31` [Example 119, (+)-4-chloro-12-(2,2-difluoroethyl)-3-ethyl-7-{3-[(6-fluoronaphthalen-1-yl)oxy]propyl}-2-methyl-10,11,12,13,14,15-hexahydro-2H-pyrazolo[3′,4′:8,9][1,4]diazacycloundecino[10,11,1-hi]indole-8-carboxylic acid N-ethylethanamine salt], the IC50 in series [1] is 1.3e-06 M; in series [2] (setting [8]) it was 1.4e-07 M; in series [5] it was 3.6e-07 M; in series [6], 3.1e-07 M; in series [7] (setting [9]), 2.9e-07 M. For the same compound, the results for the EC50 in series [3] and in series [4] were 210 nM and 110 nM, respectively.

Take `Cc1c2c(nn1C)COCC(F)(F)CCn1c(C(=O)O)c(CCCOc3cccc4cc(F)ccc34)c3ccc(Cl)c-2c31` (single isomer, unassigned) [Example 92, 4-chloro-12,12-difluoro-7-{3-[(6-fluoronaphthalen-1-yl)oxy]propyl}-2,3-dimethyl-2,10,11,12,13,15-hexahydropyrazolo[4′,3′:9,10][1,6]oxazacycloundecino[8,7,6-hi]indole-8-carboxylic acid]: the IC50 amounted to 6.8e-06 M in series [1] (72 h); 3.4e-07 M in series [2] (setting [10]); 5.4e-07 M in series [5] (Homo sapiens, AMO1, 72 h); 8.2e-07 M in series [6] (Homo sapiens, SU-DHL-5, 72 h); 8.1e-07 M in series [7] (setting [11]). In addition, the EC50 came out at 590 nM in series [3] (Homo sapiens, SU-DHL10, 3 h) and 280 nM in series [4] (Homo sapiens, SU-DHL-5, 3 h).

As for `CCc1c2c(nn1C)CN(C)CCCn1c(C(=O)O)c(CCCOc3cccc4cc(F)ccc34)c3ccc(Cl)c-2c31` [Example 113, (+)-12-chloro-11-ethyl-1-{3-[(6-fluoronaphthalen-1-yl)oxy]propyl}-7,10-dimethyl-4,5,6,7,8,10-hexahydropyrazolo[3′,4′:7,8][1,5]diazecino[9,10,1-hi]indole-2-carboxylic acid N-ethylethanamine salt], the IC50 in series [1] stood at 3.7e-06 M; in series [2] (setting [8]) it was 3e-07 M; in series [5], 3.2e-07 M; in series [6], 2.1e-06 M; in series [7] (setting [9]), 6.5e-07 M. The EC50 in series [3] amounted to 360 nM; in series [4] it was 270 nM.

Turning to `CCc1c2c(nn1C)CN(C(=O)OCCOC)CCCCn1c(C(=O)O)c(CCCOc3cccc4cc(F)ccc34)c3ccc(Cl)c-2c31` [Example 134, (rac)-4-chloro-3-ethyl-7-{3-[(6-fluoronaphthalen-1-yl)oxy]propyl}-14-[(2-methoxyethoxy)carbonyl]-2-methyl-10,11,12,13,14,15-hexahydro-2H-pyrazolo[3′,4′:8,9][1,6]diazacycloundecino[10,11,1-hi]indole-8-carboxylic acid], the IC50 worked out at 2.1e-06 M in series [1] (72 h); 1.8e-07 M in series [2] (setting [10]); 3.4e-07 M in series [5] (Homo sapiens, AMO1, 72 h); 2.3e-07 M in series [6] (Homo sapiens, SU-DHL-5, 72 h); 3.4e-07 M in series [7] (setting [11]). The EC50 in series [3] (Homo sapiens, SU-DHL10, 3 h) was found to be 240 nM; in series [4] (Homo sapiens, SU-DHL-5, 3 h) it was 130 nM.

In the case of `CCc1c2c(nn1C)CN(C)CC(F)(F)CCn1c(C(=O)O)c(CCCOc3cccc4cc(F)ccc34)c3ccc(Cl)c-2c31` (single isomer, unassigned) [Example 127, 4-chloro-3-ethyl-12,12-difluoro-7-{3-[(6-fluoronaphthalen-1-yl)oxy]propyl}-2,14-dimethyl-10,11,12,13,14,15-hexahydro-2H-pyrazolo[3′,4′:8,9][1,6]diazacycloundecino[10,11,1-hi]indole-8-carboxylic acid], the IC50 in series [1] (72 h) turned out to be 2.2e-06 M; in series [2] (setting [8]) it was 2.4e-07 M; in series [5] it was 5.8e-07 M; in series [6], 4.3e-07 M; in series [7] (setting [9]) it was 3.8e-07 M. Besides, the EC50 in series [3] was determined as 480 nM; in series [4], 280 nM.

Consider `CCc1c2c(nn1C)CCCN(CCCCO)CCn1c(C(=O)O)c(CCCOc3cccc4cc(F)ccc34)c3ccc(Cl)c-2c31` (racemic) [Example 122, (rac)-4-chloro-3-ethyl-7-{3-[(6-fluoro-1-naphthyl)oxy]propyl}-12-(4-hydroxybutyl)-2-methyl-10,11,12,13,14,15-hexahydro-2H-pyrazolo[3′,4′:8,9][1,4]diazacycloundecino[10,11,1-hi]indole-8-carboxylic acid], for which the IC50 in series [1] (72 h) turned out to be 6.6e-06 M; in series [2] (setting [10]), 1.1e-06 M; in series [5] (Homo sapiens, AMO1, 72 h), 5.1e-07 M; in series [6] (Homo sapiens, SU-DHL-5, 72 h) it was 6.8e-07 M; in series [7] (setting [11]) it was 1.1e-06 M. In addition, the EC50 in series [3] (Homo sapiens, SU-DHL10, 3 h) worked out at 750 nM; in series [4] (Homo sapiens, SU-DHL-5, 3 h), 920 nM.

Turning to `CCc1c2c(nn1C)CN(CC(F)F)CCCCn1c(C(=O)O)c(CCCOc3cccc4cc(F)ccc34)c3ccc(Cl)c-2c31` (single isomer, unassigned; enantiomer 2) [Example 76, (−)-4-chloro-14-(2,2-difluoroethyl)-3-ethyl-7-{3-[(6-fluoronaphthalen-1-yl)oxy]propyl}-2-methyl-10,11,12,13,14,15-hexahydro-2H-pyrazolo[3′,4′:8,9][1,6]diazacycloundecino[10,11,1-hi]indole-8-carboxylic acid N-ethylethanamine salt (Enantiomer 2)], the IC50 in series [1] (listed as 076) amounted to 4.4e-06 M; in series [2] (read-out: Cytotox SUDHL5 [M] (median), IC50, median, listed as 076), 3e-07 M; in series [5] (listed as 076), 2.4e-07 M; in series [6] (listed as 076), 3.2e-07 M; in series [7] (read-out: Cytotox SUDHL10 [M] (median), IC50, median, listed as 076) it was 4e-07 M. Further, the EC50 was 260 nM in series [3] (listed as 076) and 240 nM in series [4] (listed as 076).
